# Assay results from ChEMBL document CHEMBL1201862, “PubChem BioAssay data set” (2004).
#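 Values below derive from 48-hour exposures of cells grown in 96-well plates, with endpoints linearly interpolated between the two concentrations bracketing the appropriate inhibition level. GI50 = concentration required for 50% inhibition of growth.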 Active and inactive are the calls of the source. Rule as the data show it: active = GI50 up to about 1.1 µM and inactive = higher.
# Legend:
# Experiment in all cases: NCI tumour cell line growth inhibition, 48 h
# 786-0 = system: 786-0
# A549 = system: A549
# CAKI-1 = system: CAKI-1
# CCRF-CEM = system: CCRF-CEM
# COLO 205 = system: COLO 205
# DLD-1 = system: DLD-1
# DMS-114 = system: DMS-114
# EKVX = system: EKVX
# HCC 2998 = system: HCC 2998
# HCT-116 = system: HCT-116
# HL-60 = system: HL-60
# HOP-18 = system: HOP-18
# HOP-62 = system: HOP-62
# HOP-92 = system: HOP-92
# HT-29 = system: HT-29
# IGROV-1 = system: IGROV-1
# K562 = system: K562
# KM12 = system: KM12
# M14 = system: M14
# M19-MEL = system: M19-MEL
# MOLT-4 = system: MOLT-4
# Malme-3M = system: Malme-3M
# NCI-H226 = system: NCI-H226
# OVCAR-3 = system: OVCAR-3
# OVCAR-4 = system: OVCAR-4
# OVCAR-8 = system: OVCAR-8
# RPMI-8226 = system: RPMI-8226
# SF-295 = system: SF-295
# SF-539 = system: SF-539
# SK-MEL-2 = system: SK-MEL-2
# SK-MEL-5 = system: SK-MEL-5
# SK-OV-3 = system: SK-OV-3
# SNB-19 = system: SNB-19
# SNB-78 = system: SNB-78
# SW-620 = system: SW-620
# TK-10 = system: TK-10
# UACC-257 = system: UACC-257
# UACC-62 = system: UACC-62
# UO-31 = system: UO-31
# A498 = system: A498
# ACHN = system: ACHN
# DMS-273 = system: DMS-273
# HCT-15 = system: HCT-15
# LOX IMVI = system: LOX IMVI
# LXFL 529 = system: LXFL 529
# NCI-H23 = system: NCI-H23
# NCI-H460 = system: NCI-H460
# NCI-H522 = system: NCI-H522
# OVCAR-5 = system: OVCAR-5
# RXF 393 = system: RXF 393
# SF-268 = system: SF-268
# SK-MEL-28 = system: SK-MEL-28
# SN12C = system: SN12C
# SNB-75 = system: SNB-75
# U-251 = system: U-251
# KM-20L2 = system: KM-20L2
# SR = system: SR
# XF498 = system: XF498
smiles,measurement,setting,value
CSc1nc(NC2OC(COC(C)=O)C(OC(C)=O)C(OC(C)=O)C2OC(C)=O)c(/N=C(\C)C(C)=O)c(=O)[nH]1 (stereo not given),GI50,786-0,> 100 µM (inactive)
same,GI50,A549,> 100 µM (inactive)
same,GI50,CAKI-1,> 100 µM (inactive)
same,GI50,CCRF-CEM,> 100 µM (inactive)
same,GI50,COLO 205,> 100 µM (inactive)
same,GI50,DLD-1,79.1 µM (inactive)
same,GI50,DMS-114,> 100 µM (inactive)
same,GI50,EKVX,> 100 µM (inactive)
same,GI50,HCC 2998,> 100 µM (inactive)
same,GI50,HCT-116,> 100 µM (inactive)
same,GI50,HL-60,> 100 µM (inactive)
same,GI50,HOP-18,> 100 µM (inactive)
same,GI50,HOP-62,42.5 µM (inactive)
same,GI50,HOP-92,> 100 µM (inactive)
same,GI50,HT-29,> 100 µM (inactive)
same,GI50,IGROV-1,> 100 µM (inactive)
same,GI50,K562,> 100 µM (inactive)
same,GI50,KM12,> 100 µM (inactive)
same,GI50,M14,> 100 µM (inactive)
same,GI50,M19-MEL,> 100 µM (inactive)
same,GI50,MOLT-4,> 100 µM (inactive)
same,GI50,Malme-3M,> 100 µM (inactive)
same,GI50,NCI-H226,> 100 µM (inactive)
same,GI50,OVCAR-3,> 100 µM (inactive)
same,GI50,OVCAR-4,> 100 µM (inactive)
same,GI50,OVCAR-8,> 100 µM (inactive)
same,GI50,RPMI-8226,> 100 µM (inactive)
same,GI50,SF-295,> 100 µM (inactive)
same,GI50,SF-539,> 100 µM (inactive)
same,GI50,SK-MEL-2,> 100 µM (inactive)
same,GI50,SK-MEL-5,> 100 µM (inactive)
same,GI50,SK-OV-3,> 100 µM (inactive)
same,GI50,SNB-19,> 100 µM (inactive)
same,GI50,SNB-78,> 100 µM (inactive)
same,GI50,SW-620,> 100 µM (inactive)
same,GI50,TK-10,> 100 µM (inactive)
same,GI50,UACC-257,> 100 µM (inactive)
same,GI50,UACC-62,> 100 µM (inactive)
same,GI50,UO-31,> 100 µM (inactive)
CC(C1=CC=C2[C@@H]3CCC4CC(N(C)C)CC[C@]4(C)C3CC[C@]12C)N(C)C=O (stereo not given in full),GI50,786-0,> 100 µM (inactive)
same,GI50,A498,6.49 µM (inactive)
same,GI50,A549,> 100 µM (inactive)
same,GI50,ACHN,> 100 µM (inactive)
same,GI50,CAKI-1,> 100 µM (inactive)
same,GI50,CCRF-CEM,> 100 µM (inactive)
same,GI50,COLO 205,> 100 µM (inactive)
same,GI50,DLD-1,> 100 µM (inactive)
same,GI50,DMS-114,91.6 µM (inactive)
same,GI50,DMS-273,> 100 µM (inactive)
same,GI50,HCC 2998,> 100 µM (inactive)
same,GI50,HCT-116,> 100 µM (inactive)
same,GI50,HCT-15,> 100 µM
same,GI50,HL-60,> 100 µM (inactive)
same,GI50,HOP-18,> 100 µM (inactive)
same,GI50,HOP-62,> 100 µM (inactive)
same,GI50,HOP-92,> 100 µM (inactive)
same,GI50,HT-29,25.3 µM (inactive)
same,GI50,IGROV-1,> 100 µM (inactive)
same,GI50,K562,36.1 µM (inactive)
same,GI50,KM12,> 100 µM (inactive)
same,GI50,LOX IMVI,25.7 µM (inactive)
same,GI50,LXFL 529,> 100 µM (inactive)
same,GI50,M14,> 100 µM (inactive)
same,GI50,M19-MEL,> 100 µM (inactive)
same,GI50,MOLT-4,> 100 µM (inactive)
same,GI50,Malme-3M,> 100 µM (inactive)
same,GI50,NCI-H23,> 100 µM (inactive)
same,GI50,NCI-H460,> 10 µM (inactive)
same,GI50,NCI-H522,> 100 µM (inactive)
same,GI50,OVCAR-3,> 100 µM (inactive)
same,GI50,OVCAR-4,> 100 µM (inactive)
same,GI50,OVCAR-5,> 100 µM (inactive)
same,GI50,OVCAR-8,> 100 µM (inactive)
same,GI50,RPMI-8226,78.3 µM (inactive)
same,GI50,RXF 393,> 100 µM (inactive)
same,GI50,SF-268,> 100 µM (inactive)
same,GI50,SF-295,> 100 µM (inactive)
same,GI50,SF-539,> 100 µM (inactive)
same,GI50,SK-MEL-28,> 100 µM (inactive)
same,GI50,SK-MEL-2,> 100 µM (inactive)
same,GI50,SK-MEL-5,> 100 µM (inactive)
same,GI50,SK-OV-3,> 100 µM (inactive)
same,GI50,SN12C,> 100 µM (inactive)
same,GI50,SNB-19,> 100 µM (inactive)
same,GI50,SNB-75,52.8 µM (inactive)
same,GI50,SW-620,> 100 µM (inactive)
same,GI50,TK-10,> 100 µM (inactive)
same,GI50,U-251,> 100 µM (inactive)
same,GI50,UACC-62,> 100 µM (inactive)
same,GI50,UO-31,> 100 µM (inactive)
COC(=O)[C@@H]1Cc2c([nH]c3ccccc23)[C@H](c2ccccc2)N1,GI50,786-0,37.2 µM (inactive)
same,GI50,A498,20.9 µM (inactive)
same,GI50,A549,38.6 µM (inactive)
same,GI50,ACHN,38.3 µM (inactive)
same,GI50,CAKI-1,60.5 µM (inactive)
same,GI50,CCRF-CEM,37.3 µM (inactive)
same,GI50,COLO 205,20 µM (inactive)
same,GI50,DLD-1,35.2 µM (inactive)
same,GI50,DMS-114,32.2 µM (inactive)
same,GI50,DMS-273,26.7 µM (inactive)
same,GI50,EKVX,44.2 µM (inactive)
same,GI50,HCC 2998,31.2 µM (inactive)
same,GI50,HCT-116,29.4 µM (inactive)
same,GI50,HCT-15,19.4 µM
same,GI50,HL-60,29.9 µM (inactive)
same,GI50,HOP-18,52.1 µM (inactive)
same,GI50,HOP-92,44.9 µM (inactive)
same,GI50,HT-29,49.3 µM (inactive)
same,GI50,IGROV-1,22.8 µM (inactive)
same,GI50,K562,45.2 µM (inactive)
same,GI50,KM-20L2,> 100 µM (inactive)
same,GI50,KM12,36.6 µM (inactive)
same,GI50,LOX IMVI,38.9 µM (inactive)
same,GI50,LXFL 529,54.5 µM (inactive)
same,GI50,M14,25.6 µM (inactive)
same,GI50,M19-MEL,41.7 µM (inactive)
same,GI50,MOLT-4,41.4 µM (inactive)
same,GI50,Malme-3M,94 µM (inactive)
same,GI50,NCI-H226,71.8 µM (inactive)
same,GI50,NCI-H23,54.1 µM (inactive)
same,GI50,NCI-H460,34.5 µM (inactive)
same,GI50,NCI-H522,21.7 µM (inactive)
same,GI50,OVCAR-3,31.6 µM (inactive)
same,GI50,OVCAR-4,43.6 µM (inactive)
same,GI50,OVCAR-5,> 100 µM (inactive)
same,GI50,OVCAR-8,41.3 µM (inactive)
same,GI50,SF-268,41.7 µM (inactive)
same,GI50,SF-295,26.2 µM (inactive)
same,GI50,SF-539,26.4 µM (inactive)
same,GI50,SK-MEL-28,85.1 µM (inactive)
same,GI50,SK-MEL-2,32.4 µM (inactive)
same,GI50,SK-MEL-5,14.7 µM (inactive)
same,GI50,SK-OV-3,34.4 µM (inactive)
same,GI50,SN12C,28.2 µM (inactive)
same,GI50,SNB-19,37.6 µM (inactive)
same,GI50,SNB-75,19.5 µM (inactive)
same,GI50,SR,29.2 µM (inactive)
same,GI50,SW-620,35.8 µM (inactive)
same,GI50,TK-10,33 µM (inactive)
same,GI50,U-251,47.8 µM (inactive)
same,GI50,UACC-257,41.8 µM (inactive)
same,GI50,UACC-62,50.2 µM (inactive)
same,GI50,UO-31,29.6 µM (inactive)
C=CCN1C2Cc3cc(OC)c(OC)cc3C1Cc1cc(OC)c(OC)cc12,GI50,786-0,> 100 µM (inactive)
same,GI50,A498,> 100 µM (inactive)
same,GI50,A549,> 100 µM (inactive)
same,GI50,ACHN,> 100 µM (inactive)
same,GI50,CAKI-1,> 100 µM (inactive)
same,GI50,CCRF-CEM,> 100 µM (inactive)
same,GI50,DLD-1,> 100 µM (inactive)
same,GI50,EKVX,> 100 µM (inactive)
same,GI50,HCC 2998,> 100 µM (inactive)
same,GI50,HCT-15,> 100 µM
same,GI50,HOP-62,> 100 µM (inactive)
same,GI50,HT-29,69 µM (inactive)
same,GI50,K562,> 100 µM (inactive)
same,GI50,KM-20L2,> 100 µM (inactive)
same,GI50,KM12,> 100 µM (inactive)
same,GI50,LXFL 529,> 100 µM (inactive)
same,GI50,M14,> 100 µM (inactive)
same,GI50,MOLT-4,> 100 µM (inactive)
same,GI50,Malme-3M,> 100 µM (inactive)
same,GI50,NCI-H23,78.9 µM (inactive)
same,GI50,NCI-H460,> 100 µM (inactive)
same,GI50,NCI-H522,> 100 µM (inactive)
same,GI50,OVCAR-3,> 100 µM (inactive)
same,GI50,OVCAR-4,> 100 µM (inactive)
same,GI50,OVCAR-5,> 100 µM (inactive)
same,GI50,OVCAR-8,> 100 µM (inactive)
same,GI50,RPMI-8226,> 100 µM (inactive)
same,GI50,SF-268,> 100 µM (inactive)
same,GI50,SF-295,53.8 µM (inactive)
same,GI50,SK-MEL-28,> 100 µM (inactive)
same,GI50,SK-MEL-2,> 100 µM (inactive)
same,GI50,SK-MEL-5,> 100 µM (inactive)
same,GI50,SN12C,> 100 µM (inactive)
same,GI50,SNB-19,> 100 µM (inactive)
same,GI50,SNB-75,> 100 µM (inactive)
same,GI50,SNB-78,> 100 µM (inactive)
same,GI50,SW-620,> 100 µM (inactive)
same,GI50,TK-10,> 100 µM (inactive)
same,GI50,U-251,> 100 µM (inactive)
same,GI50,UACC-257,> 100 µM (inactive)
same,GI50,UO-31,64 µM (inactive)
same,GI50,XF498,> 100 µM (inactive)
